From ChEMBL document CHEMBL1250421, “Synthesis of 5-deoxy-beta-D-galactofuranosides as tools for the characterization of beta-D-galactofuranosidases” (Bioorg Med Chem, 2010)

How the values were obtained:
[1] = Inhibition of Penicillium fellutanum exo-beta-D-galactofuranosidase by spectrophotometry
[2] = test system: Penicillium fellutanum; test: Activity of Penicillium fellutanum exo-beta-D-galactofuranosidase by spectrophotometry

| SMILES | IC50 [1] | Km [2] |
| --- | --- | --- |
| O=C1O[C@@H]([C@H](O)CO)[C@H](O)[C@H]1O | 20 µM | – |
| CO[C@@H]1O[C@@H]([C@H](O)CO)[C@H](O)[C@H]1O | – | 2600 µM |
| OC[C@@H](O)[C@@H]1O[C@@H](n2cc[nH]c2=S)[C@H](O)[C@H]1O | 1050 µM | – |
| CO[C@H]1CNC(=S)N1[C@@H]1O[C@@H]([C@H](O)CO)[C@H](O)[C@H]1O | 100 µM | – |

Other lines, results leading:

| IC50 [1] | Km [2] | SMILES |
| --- | --- | --- |
| 600 µM | – | O=[N+]([O-])c1ccc(S[C@@H]2O[C@@H]([C@H](O)CO)[C@H](O)[C@H]2O)cc1 |
| – | 3700 µM | OC[C@@H](O)[C@@H]1O[C@@H](OCc2ccccc2)[C@H](O)[C@H]1O |
| – | 310 µM | O=[N+]([O-])c1ccc(O[C@@H]2O[C@@H]([C@H](O)CO)[C@H](O)[C@H]2O)cc1 |
| 80 µM | – | Nc1ccc(S[C@@H]2O[C@@H]([C@H](O)CO)[C@H](O)[C@H]2O)cc1 |
